The target in test [1] is T1, Protein deacetylase HDAC6 (Homo sapiens, UniProt Q9UBN7).
T1 sequence (Q9UBN7 whole entry): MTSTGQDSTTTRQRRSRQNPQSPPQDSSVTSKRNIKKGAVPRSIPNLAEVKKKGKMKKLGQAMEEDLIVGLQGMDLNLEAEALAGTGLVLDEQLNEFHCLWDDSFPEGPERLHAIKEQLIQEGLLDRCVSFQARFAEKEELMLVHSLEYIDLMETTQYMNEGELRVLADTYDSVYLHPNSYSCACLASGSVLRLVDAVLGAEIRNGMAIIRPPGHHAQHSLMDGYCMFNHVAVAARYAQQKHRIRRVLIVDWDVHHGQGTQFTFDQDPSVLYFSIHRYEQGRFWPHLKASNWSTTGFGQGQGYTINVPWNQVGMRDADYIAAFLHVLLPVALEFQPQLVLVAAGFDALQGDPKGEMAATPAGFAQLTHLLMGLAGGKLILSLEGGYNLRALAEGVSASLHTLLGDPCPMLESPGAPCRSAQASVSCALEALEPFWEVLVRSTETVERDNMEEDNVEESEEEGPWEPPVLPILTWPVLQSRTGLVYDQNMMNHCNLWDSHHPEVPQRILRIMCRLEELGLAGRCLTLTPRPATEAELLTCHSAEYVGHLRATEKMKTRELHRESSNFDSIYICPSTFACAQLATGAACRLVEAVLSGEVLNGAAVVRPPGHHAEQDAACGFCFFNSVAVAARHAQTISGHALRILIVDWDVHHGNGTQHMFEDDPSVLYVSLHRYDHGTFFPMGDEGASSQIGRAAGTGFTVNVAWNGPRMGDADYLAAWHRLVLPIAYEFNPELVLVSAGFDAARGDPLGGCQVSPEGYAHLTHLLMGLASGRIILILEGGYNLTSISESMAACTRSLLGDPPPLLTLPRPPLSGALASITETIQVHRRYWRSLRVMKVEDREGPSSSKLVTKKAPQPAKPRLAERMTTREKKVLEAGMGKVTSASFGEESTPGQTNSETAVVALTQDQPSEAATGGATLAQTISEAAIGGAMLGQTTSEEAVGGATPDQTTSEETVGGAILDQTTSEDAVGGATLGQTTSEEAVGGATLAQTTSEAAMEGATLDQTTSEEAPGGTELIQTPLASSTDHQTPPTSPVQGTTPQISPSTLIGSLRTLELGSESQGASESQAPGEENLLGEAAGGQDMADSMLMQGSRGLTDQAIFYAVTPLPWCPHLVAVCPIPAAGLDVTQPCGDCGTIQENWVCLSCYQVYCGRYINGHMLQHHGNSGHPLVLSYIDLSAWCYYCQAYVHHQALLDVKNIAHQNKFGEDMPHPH
The test is described as follows: Inhibition of HDAC6 (unknown origin).

Test [2] has as its target Tyrosine-protein kinase JAK2 (Homo sapiens, UniProt O60674). The experiment in a line: Inhibition of JAK2 (unknown origin).
In another test the target is Histone deacetylase 1 (Homo sapiens, UniProt Q13547). The test is described as follows: Inhibition of HDAC1 (unknown origin).
Sequence of Histone deacetylase 1 (Q13547 whole entry): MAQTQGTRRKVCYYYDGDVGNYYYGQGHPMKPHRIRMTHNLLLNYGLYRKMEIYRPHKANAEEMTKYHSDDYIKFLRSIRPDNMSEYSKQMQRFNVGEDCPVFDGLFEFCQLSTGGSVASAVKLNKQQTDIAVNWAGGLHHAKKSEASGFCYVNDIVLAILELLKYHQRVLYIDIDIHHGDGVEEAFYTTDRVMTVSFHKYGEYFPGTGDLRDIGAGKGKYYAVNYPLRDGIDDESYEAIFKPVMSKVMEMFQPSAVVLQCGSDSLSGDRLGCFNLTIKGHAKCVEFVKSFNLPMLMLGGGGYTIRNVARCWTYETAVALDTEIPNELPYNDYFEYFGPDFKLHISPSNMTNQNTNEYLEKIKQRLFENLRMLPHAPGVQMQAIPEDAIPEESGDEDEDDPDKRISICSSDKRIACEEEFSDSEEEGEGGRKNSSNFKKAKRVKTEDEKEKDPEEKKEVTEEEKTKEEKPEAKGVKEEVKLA
The next test concerns DU-145. The test is described as follows: Antiproliferative activity against human DU-145 cells assessed as inhibition of cell growth incubated for 24 to 72 hrs by MTT assay. The format is functional, cell-based.
For test [3], the target named is DNA topoisomerase 2-alpha (Homo sapiens, UniProt P11388). The experiment in a line: Inhibition of human topoisomerase 2 alpha assessed as relaxation of supercoiled plasmid pBR322 DNA incubated for 30 mins by ethidium bromide staining based agarose gel electrophoresis.
Sequence of DNA topoisomerase 2-alpha (P11388 whole entry): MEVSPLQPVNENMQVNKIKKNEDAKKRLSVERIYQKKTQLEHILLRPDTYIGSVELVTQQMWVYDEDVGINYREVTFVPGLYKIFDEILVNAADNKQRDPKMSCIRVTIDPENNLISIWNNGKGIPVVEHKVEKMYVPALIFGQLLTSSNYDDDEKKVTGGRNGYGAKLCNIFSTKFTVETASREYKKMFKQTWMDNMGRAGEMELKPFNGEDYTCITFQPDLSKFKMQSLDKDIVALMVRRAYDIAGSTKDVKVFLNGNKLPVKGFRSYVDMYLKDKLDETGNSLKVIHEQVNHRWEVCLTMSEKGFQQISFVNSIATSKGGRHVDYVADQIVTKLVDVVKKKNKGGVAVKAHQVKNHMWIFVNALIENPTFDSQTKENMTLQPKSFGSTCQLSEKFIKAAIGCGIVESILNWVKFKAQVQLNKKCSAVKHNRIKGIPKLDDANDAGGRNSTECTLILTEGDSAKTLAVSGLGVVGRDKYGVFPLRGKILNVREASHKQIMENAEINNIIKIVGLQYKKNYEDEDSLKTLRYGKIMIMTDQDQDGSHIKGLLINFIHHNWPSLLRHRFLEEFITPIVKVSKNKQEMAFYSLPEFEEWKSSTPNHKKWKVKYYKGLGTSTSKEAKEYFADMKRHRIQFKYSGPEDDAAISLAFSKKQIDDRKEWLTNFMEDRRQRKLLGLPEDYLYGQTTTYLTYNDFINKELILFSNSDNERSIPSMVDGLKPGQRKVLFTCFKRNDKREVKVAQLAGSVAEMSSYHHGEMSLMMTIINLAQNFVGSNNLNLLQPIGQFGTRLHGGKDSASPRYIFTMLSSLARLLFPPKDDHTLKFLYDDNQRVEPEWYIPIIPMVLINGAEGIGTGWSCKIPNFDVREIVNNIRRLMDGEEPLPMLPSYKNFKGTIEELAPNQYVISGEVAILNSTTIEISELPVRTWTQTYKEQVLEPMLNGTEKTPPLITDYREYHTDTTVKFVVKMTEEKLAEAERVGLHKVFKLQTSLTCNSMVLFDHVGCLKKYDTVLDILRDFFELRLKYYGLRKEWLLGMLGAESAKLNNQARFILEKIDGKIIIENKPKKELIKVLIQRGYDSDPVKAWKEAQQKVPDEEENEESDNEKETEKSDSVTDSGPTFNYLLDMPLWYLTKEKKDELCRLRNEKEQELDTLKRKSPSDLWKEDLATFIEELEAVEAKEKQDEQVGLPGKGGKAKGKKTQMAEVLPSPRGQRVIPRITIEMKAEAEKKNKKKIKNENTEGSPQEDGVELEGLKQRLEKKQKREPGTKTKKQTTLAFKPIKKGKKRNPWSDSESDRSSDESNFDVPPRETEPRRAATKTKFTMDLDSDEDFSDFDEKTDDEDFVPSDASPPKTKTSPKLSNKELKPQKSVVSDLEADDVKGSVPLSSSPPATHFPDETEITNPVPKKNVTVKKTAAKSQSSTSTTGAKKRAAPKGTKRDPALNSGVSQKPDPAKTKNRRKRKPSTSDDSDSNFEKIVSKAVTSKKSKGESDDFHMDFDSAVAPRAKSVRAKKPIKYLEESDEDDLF
A further test relates to HGC-27. The experiment in a line: Antiproliferative activity against human HGC-27 cells assessed as inhibition of cell growth incubated for 24 to 72 hrs by MTT assay. The format is functional, cell-based.
Test [4] can be described thus: Inhibition of tyrosine kinase in human CAPAN-1 cells. It is filed as cell-based.
A further test has as its system T-24. The test is described as follows: Antiproliferative activity against human T24 cells assessed as inhibition of cell growth incubated for 24 to 72 hrs by MTT assay. It is filed as functional, cell-based.
The nature of test [5]: Inhibition of tyrosine kinase in human PANC-1 cells. The format is cell-based.
In a further test the test system is PANC-1. The test is described as follows: Antiproliferative activity against human PANC-1 cells assessed as inhibition of cell growth incubated for 24 to 72 hrs by MTT assay. It is filed as functional, cell-based.
A further test deals with BGC-823. The experiment in a line: Antiproliferative activity against human BGC-823 cells assessed as inhibition of cell growth incubated for 24 to 72 hrs by MTT assay. The format is functional, cell-based.
In another test the test system is CAPAN-1. The experiment in a line: Antiproliferative activity against human CAPAN-1 cells assessed as inhibition of cell growth incubated for 24 to 72 hrs by MTT assay. The format is functional, cell-based.
For test [6], the target named is T2, Epidermal growth factor receptor (Homo sapiens, UniProt P00533). The test is described as follows: Inhibition of EGFR (unknown origin).
T2 sequence (P00533 whole entry): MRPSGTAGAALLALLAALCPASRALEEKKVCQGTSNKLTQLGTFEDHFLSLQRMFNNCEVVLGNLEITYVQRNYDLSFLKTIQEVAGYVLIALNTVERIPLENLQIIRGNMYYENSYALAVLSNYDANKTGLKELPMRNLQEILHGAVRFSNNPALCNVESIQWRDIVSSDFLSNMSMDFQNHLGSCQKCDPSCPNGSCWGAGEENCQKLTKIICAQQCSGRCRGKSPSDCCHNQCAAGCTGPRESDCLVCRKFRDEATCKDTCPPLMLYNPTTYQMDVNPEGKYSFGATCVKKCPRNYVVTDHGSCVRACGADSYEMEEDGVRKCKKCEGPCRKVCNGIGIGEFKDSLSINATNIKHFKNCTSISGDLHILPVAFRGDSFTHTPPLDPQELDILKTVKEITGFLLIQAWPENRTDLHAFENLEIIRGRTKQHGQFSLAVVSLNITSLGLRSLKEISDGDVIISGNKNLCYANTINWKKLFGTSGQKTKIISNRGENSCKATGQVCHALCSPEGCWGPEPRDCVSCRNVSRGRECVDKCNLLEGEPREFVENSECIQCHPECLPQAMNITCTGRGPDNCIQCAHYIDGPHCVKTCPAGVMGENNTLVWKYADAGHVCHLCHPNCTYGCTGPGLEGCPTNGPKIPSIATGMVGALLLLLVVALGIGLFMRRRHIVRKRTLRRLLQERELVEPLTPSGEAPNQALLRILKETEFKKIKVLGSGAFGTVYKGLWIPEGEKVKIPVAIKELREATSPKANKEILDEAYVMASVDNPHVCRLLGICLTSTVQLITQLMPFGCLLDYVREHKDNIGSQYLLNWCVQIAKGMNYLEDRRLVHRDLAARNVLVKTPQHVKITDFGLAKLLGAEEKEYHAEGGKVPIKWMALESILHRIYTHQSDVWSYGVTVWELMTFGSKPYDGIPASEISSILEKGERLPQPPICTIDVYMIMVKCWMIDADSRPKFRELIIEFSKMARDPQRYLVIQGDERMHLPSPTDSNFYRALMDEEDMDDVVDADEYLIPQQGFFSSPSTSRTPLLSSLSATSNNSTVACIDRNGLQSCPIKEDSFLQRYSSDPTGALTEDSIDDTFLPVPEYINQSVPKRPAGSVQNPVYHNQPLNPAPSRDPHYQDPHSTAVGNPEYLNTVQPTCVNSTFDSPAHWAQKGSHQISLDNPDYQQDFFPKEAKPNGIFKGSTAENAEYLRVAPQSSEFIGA
The target of another test is Cyclin-dependent kinase. The experiment in a line: Inhibition of CDK (unknown origin). The format is protein assay, Homo sapiens.
The next test deals with U-937. The test is described as follows: Antiproliferative activity against human U-937 cells assessed as inhibition of cell growth incubated for 72 hrs by MTT assay. The note with it: U-937, 72 h. It is filed as functional, cell-based.
For the next test, the target named is Tubulin (Bos taurus, UniProt Q6B856+Q862L2+Q862F3). The test is described as follows: Inhibition of bovine brain tubulin polymerization incubated for 20 mins by spectrophotometric method. It is filed as tissue-based.
A further test has as its system SK-MEL-1. The test is described as follows: Antiproliferative activity against human SK-MEL-1 cells assessed as inhibition of cell growth incubated for 72 hrs by MTT assay. It is filed as functional, cell-based. To be noted: SK-MEL-1, 72 h.
Test [7] in a line: Cytotoxicity against human U87 cells. The format is functional, cell-based, U-87MG ATCC. To be noted: U-87 MG.
Test [8] relates to K562. The experiment in a line: Cytotoxicity against imatinib-resistant human K562 cells assessed as inhibition of cell growth. It is filed as functional, cell-based.
Test [9] deals with K562. The experiment in a line: Cytotoxicity against human K562 cells assessed as inhibition of cell growth. The format is functional, cell-based.
In test [10] the target is T2, Epidermal growth factor receptor. The test is described as follows: Inhibition of EGFR (unknown origin) phosphorylation using kit-tyr4 peptide as substrate incubated for 1 hr in presence of ATP by UV-Vis spectrophotometer.
The next test concerns A549. The test is described as follows: Antiproliferative activity against human A549 cells assessed as inhibition of cell growth incubated for 48 hrs by MTT assay. It is filed as functional, cell-based. The note with it: A549, 48 h.
Test [11] deals with T2, Epidermal growth factor receptor. The experiment in a line: Inhibition of EGFR (unknown origin) by ELISA.
Test [12] deals with Vascular endothelial growth factor receptor 2 (Homo sapiens, UniProt P35968). The experiment in a line: Inhibition of VEGFR2 (unknown origin) by ELISA.
Another test deals with DNA topoisomerase 2-beta (Homo sapiens, UniProt Q02880). The experiment in a line: Inhibition of human DNA topoisomerase 2-beta.
For the next test, the system named is A-431. The experiment in a line: Cytotoxicity against human A-431 cells. It is filed as functional, cell-based.
The subject of the next test is NCI-H1975. The test is described as follows: Cytotoxicity against human NCI-H1975 cells. It is filed as functional, cell-based.

Molecules are shown by their SMILES. pIC50: −log10 of the molar value. A value given as a limit tells only on which side of the number the result lay.

Sequence of Tyrosine-protein kinase JAK2 (O60674 whole entry): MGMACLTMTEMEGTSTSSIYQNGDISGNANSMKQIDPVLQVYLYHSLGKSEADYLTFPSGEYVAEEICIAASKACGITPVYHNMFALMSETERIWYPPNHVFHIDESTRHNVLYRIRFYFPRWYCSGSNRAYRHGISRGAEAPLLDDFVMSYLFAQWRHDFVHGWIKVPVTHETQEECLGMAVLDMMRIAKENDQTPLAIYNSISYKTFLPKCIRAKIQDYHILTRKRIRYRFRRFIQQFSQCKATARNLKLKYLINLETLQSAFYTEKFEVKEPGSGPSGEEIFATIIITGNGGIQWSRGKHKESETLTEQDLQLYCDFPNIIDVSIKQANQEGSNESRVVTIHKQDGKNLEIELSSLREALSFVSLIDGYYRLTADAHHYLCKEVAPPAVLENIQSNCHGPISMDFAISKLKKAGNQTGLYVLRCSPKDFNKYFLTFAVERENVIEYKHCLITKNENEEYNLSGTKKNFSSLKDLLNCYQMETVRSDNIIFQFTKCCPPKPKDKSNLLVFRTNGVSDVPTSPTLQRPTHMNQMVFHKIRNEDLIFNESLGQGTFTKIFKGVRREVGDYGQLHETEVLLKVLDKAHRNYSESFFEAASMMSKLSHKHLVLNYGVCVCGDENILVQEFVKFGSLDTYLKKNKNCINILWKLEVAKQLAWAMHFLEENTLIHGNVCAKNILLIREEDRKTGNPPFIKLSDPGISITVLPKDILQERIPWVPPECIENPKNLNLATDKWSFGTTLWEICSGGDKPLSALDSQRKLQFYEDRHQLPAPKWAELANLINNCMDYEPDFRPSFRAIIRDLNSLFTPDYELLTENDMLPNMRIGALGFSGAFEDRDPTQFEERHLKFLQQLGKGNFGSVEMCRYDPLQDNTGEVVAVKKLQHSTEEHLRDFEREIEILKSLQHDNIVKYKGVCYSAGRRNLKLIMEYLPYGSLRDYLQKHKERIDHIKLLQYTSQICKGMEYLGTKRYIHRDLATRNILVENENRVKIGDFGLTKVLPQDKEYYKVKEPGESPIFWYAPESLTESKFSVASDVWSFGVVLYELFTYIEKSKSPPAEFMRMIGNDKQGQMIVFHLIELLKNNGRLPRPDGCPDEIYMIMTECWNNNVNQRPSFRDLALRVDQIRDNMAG

As for `CC(=O)Nc1ccc(-c2ccnc(NCc3ccc(OCCCCCC(=O)NO)cc3)n2)cc1`, the results for the pIC50 (in test [1]; in [2]; against Histone deacetylase 1) were 7.70, 8.59 and 6.51, respectively.
As to `CN1CCN(c2cc3c(cc2F)C(=O)C(/C=C2\CN(C4CC4)c4cc(N5CCNCC5)c(F)cc4C2=O)CN3C2CC2)CC1` (centres undefined), the pIC50 with DU-145 was 6.51; in test [3], 5.80; in the test with HGC-27 it was 6.51; in [4], 6.19; in the test with T-24, 6.51; in test [5], 5.51. Besides, the pIC50 in the test with PANC-1, in the test on BGC-823 and in the test with CAPAN-1 was 6.51 each time.
Turning to `CS(=O)(=O)Nc1ccc(-c2ccnc(Nc3ccc(N4CCC(CCc5ccc(/C=C/CC(=O)NO)cc5)CC4)cc3)n2)cc1`, the pIC50 is 7.34 in test [1] and 8.10 in test [2].
`O=[N+]([O-])OCCCOc1ccc(Nc2ncnc3c2cnn3-c2ccc(Br)cc2)cc1` had a pIC50 in [6] of 5.52.
Turning to `COc1ccc(CCNc2nc(N)c(C(=O)c3cc(OC)c(OC)c(OC)c3)s2)cc1`, the IC50 on Cyclin-dependent kinase is greater than 10000 nM; against Tubulin it was greater than 20000 nM. Besides, the pIC50 in the test with U-937 is 5.24; in the test on SK-MEL-1, 5.10.
The molecule `C=C[C@]1(C)CC[C@@H](C(=C)COC(=O)CNC(=O)CCC(=O)OCCCCOc2no[n+]([O-])c2S(=O)(=O)c2ccccc2)C[C@H]1C(=C)C` gave a pIC50 in test [7] of 8.70.
In the case of `COc1ccc(S(=O)(=O)N2CCc3cccc(NC=O)c32)cc1`, the results for the pIC50 with K562 [8] and with K562 [9] were 6.39 and 6.41, respectively.
Regarding `COc1ccc(CNc2nc3ccccc3c(NCc3ccc(OC)cc3)c2[N+](=O)[O-])cc1`, the pIC50 in [10] is 6.66; with A549, 5.19.
Consider `Cc1ccc2c(=O)n(Cc3ccccc3)c(SCc3cn(-c4ccc(C(=O)O)cc4)nn3)nc2c1`, for which the pIC50 in [11] is 7.41; in [12], 6.90; against DNA topoisomerase 2-beta it was 7.59.
In test [6], `CSc1nn(-c2ccc(Br)cc2)c2nc(C)nc(Nc3ccc(OCCCC[N+](=O)[O-])cc3)c12` had a pIC50 of 5.52.
As to `O=C(CCCCCn1cc(-c2ccc3ncnc(Nc4ccc(Br)cc4F)c3c2)nn1)NO`, the pIC50 was 8.37 in test [1]; 6.59 in the test with A-431; 6.04 in the test with NCI-H1975; 7.99 in test [6]; 8.96 at Histone deacetylase 1.
`Cc1cc(NC2=NC(=O)/C(=C/c3c4ccccc4cc4ccccc34)S2)no1`: the pIC50 in test [6] is 7.35.

Values taken from ChEMBL document CHEMBL5226338, “Molecular hybrids: A five-year survey on structures of multiple targeted hybrids of protein kinase inhibitors for cancer therapy” (Eur J Med Chem, 2021).
